Experimental data as given in paper PMC12525867, “Aromaticity Tuning in Biaryl Monophosphines and Their Derivatives” (Molecules, 2025).
In brackets after ≈: the same amount, converted by molar mass.

Experiments:
M. luteus ATCC 10240 = assay: Antibacterial screening, broth microdilution (MIC/MBC); type: cell-based, Micrococcus luteus; conditions: Micrococcus luteus, ATCC10240; M. luteus ATCC 10240; read-out: MBC
Procedure: (§1) The antimicrobial activities of a series of compounds 1–5 were tested through the utilization of seven reference species, encompassing both Gram-positive (Staphylococcus aureus ATCC 29213, Staphylococcus epidermidis ATCC 12228, Micrococcus luteus ATCC 10240) and Gram-negative (Escherichia coli ATCC 25922, Klebsiella pneumoniae ATCC 13883, Proteus mirabilis ATCC 12453, Acinetobacter baumannii ATCC 19606) bacteria as model microorganisms. For this purpose, microbial suspensions were prepared in sterile saline (0.85% NaCl) with an optical density of 0.5 McFarland standard, yielding a concentration of 150 × 10^6 CFU/mL (CFU, colony-forming units). All of the stock solutions of the tested compounds were dissolved in DMSO. Amoxicillin (Glentham Life Sciences Ltd., Corsham, UK) was used as a positive control.
(§2) The MIC values of the tested compounds were determined by serial twofold dilutions of 1–5 in Mueller Hinton Broth (MHB, Biomaxima, Lublin, Poland). The range of final 1–5 concentrations used was from 0.49 up to 1000 μg/mL, and for amoxicillin from 0.12 up to 250 μg/mL in the 96-well microtiter plates (Medlab, Raszyn, Poland), starting with 98 μL MHB and 2 μL bacterial inoculum added to each well. Positive controls consisted of 100 μL MHB in each well with the tested compounds at the same concentration range. The negative controls consisted of 100 μL of MHB only. Each set of tests and controls was established with three replicates. The microtiter plates were then subjected to an incubation period of 24 h at a temperature of 35 ± 2 °C. After incubation, the optical density of the microbial growth was measured at a wavelength of 600 nm using a microplate reader, the Biotek Elx800 (BioTek Instruments, Inc., Winooski, VT, USA). The MIC value was defined as the lowest concentration of the tested compound at which there was no visible growth of the tested microorganisms. The determination of the MIC values was achieved by employing the broth microdilution method, in accordance with the recommendations of the European Committee on Antimicrobial Susceptibility Testing (EUCAST). […] Then, the MHA plates were incubated overnight at 35 ± 2 °C. […] The MIC and MBC values were reported in μg/mL, according to the EUCAST reference.

A. baumannii ATCC 19606 = assay: as above; type: cell-based, Acinetobacter baumannii; conditions: Acinetobacter baumannii, ATCC19606; A. baumannii ATCC 19606, MHB, 24 h, 35 °C; read-out: MIC
Procedure: as §1, §2

Gram-positive bacteria = assay: Antibacterial screening, summary over the three Gram-positive reference species; type: cell-based; conditions: range over three Gram-positive reference species
Procedure: as §1
The MIC values of the tested compounds were determined by serial twofold dilutions of 1–5 in Mueller Hinton Broth (MHB, Biomaxima, Lublin, Poland). The range of final 1–5 concentrations used was from 0.49 up to 1000 μg/mL, and for amoxicillin from 0.12 up to 250 μg/mL in the 96-well microtiter plates (Medlab, Raszyn, Poland), starting with 98 μL MHB and 2 μL bacterial inoculum added to each well. […] After incubation, the optical density of the microbial growth was measured at a wavelength of 600 nm using a microplate reader, the Biotek Elx800 (BioTek Instruments, Inc., Winooski, VT, USA). […]

Row | SMILES | MBC (M. luteus ATCC 10240) [mg/L] | MIC (A. baumannii ATCC 19606) [mg/L] | MBC (Gram-positive bacteria) [mg/L] | MIC (Gram-positive bacteria) [mg/L]
1 | COc1ccccc1-c1c(P(=O)(C2CCCCC2)C2CCCCC2)c(OC)c2ccccc2c1OC [Compound 2, Dicyclohexyl[1,4-dimethoxy-3-(2-methoxyphenyl)naphthalen-2-yl]phosphane oxide] | > 1000 | 500 (≈ 987 µM) | > 1000 | 1.95 to 15.6 (≈ 3.85 to 30.9 µM)
2 | COc1cc(OC)c(-c2c(P(=O)(C3CCCCC3)C3CCCCC3)c(OC)c3ccccc3c2OC)c(OC)c1 [Compound 1, Dicyclohexyl[1,4-dimethoxy-3-(2,4,6-trimethoxyphenyl)naphthalen-2-yl]phosphane oxide] | 125 (≈ 221 µM) | 1000 (≈ 1760 µM) | – | –
3 | COc1cc(OC)c(-c2c(P(=O)(C3CCCCC3)C3CCCCC3)c(O)c3ccccc3c2OC)c(OC)c1 [Compound 3, 2-(Dicyclohexylphosphoryl)-4-methoxy-3-(2,4,6-trimethoxyphenyl)naphthalen-1-ol] | > 1000 | > 1000 | – | –
